In patent US10463651B2, “3-(1H-pyrrolo[3,2-C]pyridin-2-YL)-1H-indazoles and therapeutic uses thereof” (Samumed, LLC, priority 2015, dated 2019):

Tests used:
Assay type in all cases: cell-based
[1] = test system: Wnt activity (Sp5-Luc reporter, SW480 colon carcinoma cells); test: Screening assay for Wnt activity (Sp5-Luc reporter gene assay in SW480 cells); conditions: Homo sapiens; for EC50: Sp5-Luc reporter, SW480 cells, incubated overnight
Summary of the method: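 SW480 colon carcinoma cells stably carrying Sp5 promoter (eight TCF/LEF sites)-driven firefly luciferase, plated at 4,000 cells/well in 1% FBS medium and incubated overnight at 37° C. Luminescence normalised to DMSO-only cells; EC50 from four-parameter variable-slope nonlinear regression.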

[2] = test system: SW480 colon cancer cells; test: Cell viability assay (CellTiter-Blue); conditions: Homo sapiens; for EC50: 96 h, SW480 cell viability, four days, CellTiter-Blue
Summary of the method: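 Fluorescence from resazurin reduced to resorufin by metabolically active cells was the read-out, taken after ~3 h with CellTiter-Blue.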

[3] = test system: primary human fibroblasts derived from IPF patients (LL29 cells) treated with TGF-β1; test: Inhibition of the fibrotic process (αSMA staining) in TGF-β1-treated fibroblasts; conditions: Fibroblast, 96 h; for EC50: % αSMA-positive LL29 cells, TGF-β1 20 ng/mL, 4 days
Summary of the method: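 LL29 fibroblasts from IPF patients, 1,500 cells/well in F12 with 1% FBS, stimulated with TGF-β1; TGF-β1 plus DMSO wells as controls. Incubation 4 days, then SYTOX green 1 μM final for 30 min at room temperature. Fibrotic response read as αSMA staining.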

[4] = test system: primary human mesenchymal stem cells (hMSCs); test: Induction of chondrogenesis in hMSCs (Rhodamine B / Nile Red nodule imaging); conditions: for EC50: concentration required to induce 50% levels of chondrogenesis vs TGF-β3 positive control, read-out: Conc (nM) of 50% TGF-β3 activity; for Emax: maximum activity relative to TGF-β3 (10 ng/mL) positive control, read-out: Max. Activity as % TGF-β3 activity
From the text: Representative compounds were screened using primary human mesenchymal stem cells (hMSCs) to determine their ability to induce chondrogenesis (process by which cartilage is developed).
Primary human mesenchymal stem cells (hMSCs) were purchased from Lonza (Walkersville, Md.) and expanded in Mesenchymal Stem Cell Growth Media (Lonza). Cells between passage 3 and 6 were used for the experiments.
Area of nodules in each well was normalized to the average of 3 DMSO treated wells on the same plate using Excel (Microsoft Inc.). The normalized averages (fold change over DMSO) of 2 or 3 replicate wells for each compound concentration were calculated. Due to solubility limitations of some of the compounds, curve fitting was incomplete leading to inaccurate EC50 determinations.
Using TGF-β3 as a positive control, the concentration of representative compounds required to induce 50% levels of chondrogenesis is reported. In addition, the maximum activity of each compound and the respective dose that each compound reached maximum chondrogenesis activity is reported.

[5] = test system: IL-6 (THP-1 cells); test: IL-6 inhibition in LPS-stimulated THP-1 cells (HTRF); conditions: Homo sapiens; for EC50: IL6 by HTRF, THP-1 cells, 500 ng/mL LPS, 22 hours
Summary of the method: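 THP-1 cells, pre-cultured 24 h in 1% FBS medium, treated with compound 2 h at 37 °C, then stimulated with 500 ng/mL LPS for 22 h. Secreted IL-6 measured by HTRF as the 665/620 nm ratio. Values normalized to DMSO; EC50 from four-parameter fit, duplicates.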

Row | SMILES | EC50 [1] [nM] | EC50 [2] [nM] | EC50 [3] [nM] | EC50 [4] [nM] | Emax [4] [%] | inhibition at 10 µM ([5]; THP-1, read-out: percent inhibition at 10 M) [%] | EC50 [5] [nM] | inhibition at 10 µM ([1]; SW480, read-out: percent inhibition at 10 μM) [%] | inhibition at 10 µM ([2]; SW480, 96 h, read-out: percent inhibition at 10 μM) [%] | inhibition at 10 µM ([3]; read-out: percent inhibition at 10 μM) [%]
1 | c1cc2[nH]c(-c3n[nH]c4ccc(-c5cncc(CN6CCCCC6)c5)cc34)cc2c(-c2ccoc2)n1 [Compound 323, 3-(4-(Furan-3-yl)-1H-pyrrolo[3,2-c]pyridin-2-yl)-5-(5-(piperidin-1-ylmethyl)pyridin-3-yl)-1H-indazole] | 890 | 3420 | 1150 | 10 | 177 | 16.6 | > 10000 |  |  | 
2 | Cc1ccncc1-c1ccc2[nH]nc(-c3cc4c(-c5cc(F)cc(CNS(C)(=O)=O)c5)nccc4[nH]3)c2c1 [Compound 481, N-(3-Fluoro-5-(2-(5-(4-methylpyridin-3-yl)-1H-indazol-3-yl)-1H-pyrrolo[3,2-c]pyridin-4-yl)benzyl)methanesulfonamide] | 304 | 500 | 528 | 300 | 267 |  | 103 |  |  | 
3 | CN(C)Cc1cncc(-c2ccc3[nH]nc(-c4cc5c(-c6ccc(F)cc6)nccc5[nH]4)c3c2)c1 [Compound 41, 1-(5-(3-(4-(4-Fluorophenyl)-1H-pyrrolo[3,2-c]pyridin-2-yl)-1H-indazol-5-yl)pyridin-3-yl)-N,N-dimethylmethanamine] | > 10000 | 2990 | 2650 |  | 46 |  | 9400 | 55.7 |  | 
4 | CCC(=O)Nc1cncc(-c2ccc3[nH]nc(-c4cc5c(N6CCCCC6)nccc5[nH]4)c3c2)c1 [Compound 169, N-(5-(3-(4-(Piperidin-1-yl)-1H-pyrrolo[3,2-c]pyridin-2-yl)-1H-indazol-5-yl)pyridin-3-yl)propionamide] | 445 | 296 | 149 | 10 | 244 |  | 48 |  |  | 
5 | c1cc2[nH]c(-c3n[nH]c4ccc(-c5cncc(OCCN6CCCC6)c5)cc34)cc2cn1 [Compound 658, 5-(5-(2-(Pyrrolidin-1-yl)ethoxy)pyridin-3-yl)-3-(1H-pyrrolo[3,2-c]pyridin-2-yl)-1H-indazole] | 1860 | 552 | 338 | 30 | 198 |  | 1160 |  |  | 
6 | Cc1ccncc1-c1ccc2[nH]nc(-c3cc4c(N5CCN(C)CC5)nccc4[nH]3)c2c1 [Compound 229, 3-(4-(4-Methylpiperazin-1-yl)-1H-pyrrolo[3,2-c]pyridin-2-yl)-5-(4-methylpyridin-3-yl)-1H-indazole] | 3500 | 3680 | 2980 |  | 36 |  | 1090 |  |  | 
7 | Nc1cncc(-c2ccc3[nH]nc(-c4cc5c(-c6cccnc6)nccc5[nH]4)c3c2)c1 [Compound 87, 5-(3-(4-(Pyridin-3-yl)-1H-pyrrolo[3,2-c]pyridin-2-yl)-1H-indazol-5-yl)pyridin-3-amine] | 146 | 562 | 113 | 100 | 178 |  | 86 |  |  | 
8 | Nc1cncc(-c2ccc3[nH]nc(-c4cc5c(-c6ccccc6F)nccc5[nH]4)c3c2)c1 [Compound 59, 5-(3-(4-(2-Fluorophenyl)-1H-pyrrolo[3,2-c]pyridin-2-yl)-1H-indazol-5-yl)pyridin-3-amine] | 60 | > 10000 | > 10000 | 2700 | 70 |  | 9540 |  | 43.5 | 46.6
9 | c1cc2[nH]c(-c3n[nH]c4ccc(-c5cncc(CN6CCCC6)c5)cc34)cc2cn1 [Compound 266, 5-(5-(Pyrrolidin-1-ylmethyl)pyridin-3-yl)-3-(1H-pyrrolo[3,2-c]pyridin-2-yl)-1H-indazole] | 790 | 514 | 1850 |  | 26 |  | 380 |  |  | 
